Source: ChEMBL document CHEMBL4325898, “Recent advances in the development of neuroprotective agents and therapeutic targets in the treatment of cerebral ischemia” (Eur J Med Chem, 2019)

Test system: Felis catus
Test: Reduction in infarct volume in cat at 0.5 mg/kg administered as bolus dose at 15 mins before middle cerebral artery occlusion followed by infusion of 0.14 mg/kg/hr measured after 6 hrs
Format: functional
Design: scale not given: the % may be the effect or the level left

## C[C@]12N[C@H](Cc3ccccc31)c1ccccc12.O=C(O)/C=C/C(=O)O
  Activity: 75%
